Test results as given in article PMC6018403 (Frontiers in Pharmacology, 2018).
Like-named read-outs stand apart in the source and are kept apart here.

Legend:
P-glycoprotein (P-gp) = target: T1, P-glycoprotein (P-gp) (Homo sapiens, UniProt P08183); test: P-gp inhibitor and inducer experiments on Caco-2 cell monolayer; format: in vitro ADME; settings: added together with BER 5 μM; verapamil 5 μM; rifampicin 5, 20, 50 μM
T1 construct: host or cells: Caco-2 (human colon adenocarcinoma) monolayers, passages 24-35
T1 sequence (P08183 whole entry): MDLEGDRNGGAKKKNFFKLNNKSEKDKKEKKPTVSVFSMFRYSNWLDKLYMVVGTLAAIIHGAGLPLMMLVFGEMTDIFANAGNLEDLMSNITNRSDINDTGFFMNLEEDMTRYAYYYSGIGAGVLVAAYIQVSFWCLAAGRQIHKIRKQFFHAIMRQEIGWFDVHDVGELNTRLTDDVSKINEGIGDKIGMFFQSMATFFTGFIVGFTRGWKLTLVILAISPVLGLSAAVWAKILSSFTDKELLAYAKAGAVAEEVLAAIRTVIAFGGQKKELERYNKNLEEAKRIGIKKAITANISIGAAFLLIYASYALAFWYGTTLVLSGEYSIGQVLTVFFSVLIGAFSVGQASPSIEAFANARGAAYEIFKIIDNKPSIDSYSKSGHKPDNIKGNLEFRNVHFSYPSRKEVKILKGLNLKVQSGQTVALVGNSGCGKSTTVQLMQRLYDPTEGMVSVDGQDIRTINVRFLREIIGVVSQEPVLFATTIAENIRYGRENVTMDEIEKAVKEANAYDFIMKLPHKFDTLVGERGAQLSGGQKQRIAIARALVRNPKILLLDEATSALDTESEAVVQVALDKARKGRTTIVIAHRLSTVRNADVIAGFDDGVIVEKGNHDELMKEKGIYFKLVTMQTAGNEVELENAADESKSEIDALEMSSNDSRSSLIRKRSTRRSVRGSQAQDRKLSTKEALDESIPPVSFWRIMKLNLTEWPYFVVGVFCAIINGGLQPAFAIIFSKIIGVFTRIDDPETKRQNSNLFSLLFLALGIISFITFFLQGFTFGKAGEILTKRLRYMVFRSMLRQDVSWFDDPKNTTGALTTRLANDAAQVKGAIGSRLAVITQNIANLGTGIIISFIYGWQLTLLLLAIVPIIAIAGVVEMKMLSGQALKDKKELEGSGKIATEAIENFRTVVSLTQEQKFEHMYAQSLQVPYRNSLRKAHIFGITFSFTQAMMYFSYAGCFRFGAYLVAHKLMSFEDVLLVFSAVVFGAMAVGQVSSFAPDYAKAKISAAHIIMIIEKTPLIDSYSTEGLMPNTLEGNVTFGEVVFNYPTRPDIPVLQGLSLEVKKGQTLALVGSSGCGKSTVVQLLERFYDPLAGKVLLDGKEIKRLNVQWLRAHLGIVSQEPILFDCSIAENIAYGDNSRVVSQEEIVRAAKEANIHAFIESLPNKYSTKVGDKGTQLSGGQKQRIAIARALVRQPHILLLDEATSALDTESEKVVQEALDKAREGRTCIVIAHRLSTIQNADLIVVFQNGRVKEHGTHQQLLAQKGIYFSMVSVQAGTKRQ
Protocol: The final concentration of GQD, GQD−GC, and Huang-Lian water extracts were 32, 28, and 6 μg/mL, respectively. […]
containing glucose (25 mM) and HEPES (10 mM). The final concentration of berberine was 5 µM. The final concentration of DMSO was below 1% (v/v). […]
inducer of Caco-2 cells, respectively. For the inhibitor experiments, the Caco-2 cells were cultivated in DMEM until the 21st day. After removal of the medium, the cells were incubated for 30 minutes with HBSS containing 5 µM of verapamil. For the inducer experiments, the cells were cultivated in DMEM until the 18th day, and then […]
was removed on the 21st day, and the cells were then incubated for 30 min with HBSS.
Berberine and glycyrrhizic acid were added to the system following HBSS incubation.
For all bidirectional transport assays, samples (300 µL) were collected after 30, 60, 90, […]
with an equal volume of HBSS. The samples were freeze-dried and then dissolved in 300 µL of methanol. The solutions were filtered through 0.22-µm membranes before […]
3. Inhibitor and inducer experiments […]
respectively. For the inhibition experiments, Caco-2 cells were cultivated in DMEM until the 21st day. After removal of the medium, the cells were incubated for 30 minutes with HBSS containing verapamil (5 µM). For induction experiments, the cells were cultivated in DMEM until the 18th day, and then cultivated in DMEM […]
The medium was removed on the 21st day, and the cells were then incubated for 30 min with HBSS. Berberine and glycyrrhizic acid were added to the system following HBSS incubation.

db/db mice = test: Evaluation of anti-diabetic effects in db/db mice; format: in vivo; settings: P < 0.05, metformin 100 mg/kg/d
Protocol: Eight-week-old male db/db mice (30–35 g) were used, and the details were described in Supplemental Data. The mice were randomly divided into eight groups. Mice were orally administered with metformin (100 mg/kg/d, n = 6), berberine (50 mg/kg/d, n = 6), glycyrrhizic acid (80 mg/kg/d, n = 6), berberine (50 mg/kg/d) combined with low-dose of glycyrrhizic acid (50 mg/kg/d, n = 6), berberine (50 mg/kg/d) combined with high-dose of glycyrrhizic acid (80 mg/kg/d, n = 6), berberine (50 mg/kg/d) combined with Gan-Cao (2.2 g/kg/d, n = 7), and GQD (18.2 g/kg/d, n = 7) for 4 weeks. For the control group, the […] were administered with an equal volume of water. On day 28, after fasted for 12 h, retro-orbital blood samples were collected, stand for 1 h, and then centrifuged (6,000 rpm, 4°C) for 20 min to obtain serum. Biochemical indicators such as blood glucose and insulin were determined on a Mindray BS-800 analyzer (Mindray Bio-Medical Electronics Co.).
Herbal materials and extracts.
The four component herbs, Puerariae Lobatae Radix (Ge-Gen, GG), Scutellariae Radix (Huang-Qin, HQ), Coptidis Rhizoma (Huang-Lian, HL), and Glycyrrhizae Radix et Rhizoma Praeparata cum Melle (Gan-Cao, GC) were purchased from Tianheng Pharmacy. GQD was prepared by decocting the four component herbs […]
of water for three times (1.5 h, 1.5 h, 0.5 h) to obtain the extracts, followed by a pre-extraction of Ge-Gen using 200 mL of water for 0.5 h. The decoctions were combined, filtered, and concentrated in vacuum at 50 °C. GQD-GC was prepared using the same procedure, except that Gan-Cao was removed from the formula. Final concentration of the GQD-GC extract was equivalent to 1.0 g of the crude drugs per mL. For single herb extracts, the herbs were decocted in 8-fold volume of water for three times (1.5 h, 1.5 h, 0.5 h) and then concentrated. […]
For anti-diabetic study, Eight-week-old male db/db mice (30–35 g) were purchased from Card Vince Laboratory animal Co., Ltd. The mice were bred in a cage (318 × 202 × 135 mm) in a breeding room at 25 °C, 60 ± 5% humidity, and a 12-h dark-light […]
On day 28, db/db mice were fasted for 12 h, and blood was collected and centrifuged to obtain serum for insulin and biochemical tests. After that, 150 µL of plasma was prepared by adding 150 µL of internal standard solution, 150 µL of methanol, and 300 µL of acetonitrile. The processing method was consistent with sample preparation for […]
3.1. Optimization of chromatographic separation
Different solvents (67% methanol, and 100% methanol) were compared to effectively extract both hydrophilic and hydrophobic compounds of GQD. […]
better extraction recovery for most compounds. […]

[1] = Multi-component pharmacokinetic study of GQD, GQD-GC and single herb extracts in rats (plasma, LC/MS/MS); format: in vivo, Sprague-Dawley rats; settings: for AUC(0-t) / Cmax / half-life / Tmax: male, Sprague-Dawley, rat; for AUC(0-t): po, read-out: AUClast; for Cmax: read-out: Cmax; for half-life: read-out: T1/2 (converted); for Tmax: read-out: Tmax
Summary of the method: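 Male Sprague-Dawley rats (220–250 g, n = 10 per group) dosed orally with GQD, GQD-GC (1.0 g crude drug/mL) or single-herb decoctions. Plasma analytes quantified by LC/MS/MS in positive-ESI SRM mode. Cmax and Tmax taken from measured data, other parameters by non-compartmental or compartmental analysis; mean ± SD.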

[2] = plasma, 18.9 g/kg, GQD group: rats, oral GQD extract 18.9 g/kg, plasma
[3] = GQD group: rats, oral GQD extract 18.9 g/kg, plasma
[4] = plasma, 3.54 g/kg, HQ (Huang-Qin) group: rats, oral extract 3.54 g/kg, plasma
[5] = HQ (Huang-Qin) group: rats, oral extract 3.54 g/kg, plasma
[6] = GQD-GC group (GQD without Gan-Cao): rats, oral 16.5 g/kg, plasma
[7] = GC (Gan-Cao) group: rats, oral extract 2.36 g/kg, plasma

Row | AUC(0-t) [1, 2] | Cmax [1, 3] | half-life [1, 3] | Tmax [1, 3] | Compound | AUC(0-t) [1, 4] | Cmax [1, 5] | half-life [1, 5] | Tmax [1, 5] | further results
1 |  |  |  |  | CO[C@H]1/C=C/O[C@@]2(C)Oc3c(C)c(O)c4c(O)c(c(/C=N/N5CCN(C)CC5)c(O)c4c3C2=O)NC(=O)/C(C)=C\C=C\[C@H](C)[C@H](O)[C@@H](C)[C@@H](O)[C@@H](C)[C@H](OC(C)=O)[C@@H]1C [rifampicin, reference compound] |  |  |  |  | effect on the efflux of BER (P-glycoprotein (P-gp)): increased; effect on the influx of BER (P-glycoprotein (P-gp)): decreased
2 |  |  |  |  | CN(C)C(=N)N=C(N)N [Metformin, metformin, reference compound] |  |  |  |  | 4-week body weight (db/db mice): significant decrease
3 | 37.9 ± 29.9 ng·h/mL | 7.47 ± 8.1 ng/mL | 11.3 ± 3.38 h | 2 ± 1.24 h | COc1c(CC=C(C)C)c(O)cc2oc(=O)c(-c3ccc(O)cc3O)cc12 [Compound 30, glycycoumarin] |  |  |  |  | AUC ([1]; Gan-Cao group: rats, oral 2.36 g/kg, plasma): not detected; AUC(0-t) ([1]; plasma, 18.9 g/kg, GQD group: rats, oral GQD 18.9 g/kg (1.5-fold of clinical dosage), plasma): 37.9 ± 29.9 ng·h/mL; plasma concentrations, effect of GQD compared with Gan-Cao ([1]; rats, oral): improved
4 | 53 ± 7.56 ng·h/mL | 1.83 ± 0.14 ng/mL | 16.1 ± 4.22 h | 2 ± 1.29 h | COc1c(O)cc(OC2OC(CO)C(O)C(O)C2O)c2c(=O)cc(-c3ccccc3)oc12 (centres unmarked) [Compound 13, wogonin 5-O-glucoside] | 42.8 ± 6.01 ng·h/mL | 1.92 ± 0.13 ng/mL | 16.1 ± 5.45 h | 0.1 ± 0.07 h | AUC(0-t) ([1]; plasma, 16.5 g/kg, GQD-GC group (GQD without Gan-Cao): rats, oral 16.5 g/kg, plasma): 28.2 ± 3.04 ng·h/mL; Cmax [1, 6]: 5.17 ± 0.26 ng/mL; half-life [1, 6]: 13.1 ± 3.96 h; Tmax [1, 6]: 2 ± 4.23 h
5 | 39.2 ± 8.9 ng·h/mL | 2.81 ± 0.87 ng/mL | 3.55 ± 0.08 h | 5.33 ± 0.89 h | O=C(/C=C/c1ccc(O)cc1)c1ccc(O)cc1O [Compound 28, isoliquiritigenin] |  |  |  |  | AUC(0-t) ([1]; plasma, 2.36 g/kg, GC (Gan-Cao) group: rats, oral extract 2.36 g/kg, plasma): 1.28 ± 0.03 ng·h/mL; Cmax [1, 7]: 1.16 ± 0.52 ng/mL; half-life [1, 7]: 0.28 ± 0.08 h; Tmax [1, 7]: 0.41 ± 0.47 h

Row | Compound | AUC(0-t) [1, 2] | Cmax [1, 3] | half-life [1, 3] | Tmax [1, 3] | AUC(0-t) [1, 4] | Cmax [1, 5] | half-life [1, 5] | Tmax [1, 5] | further results
6 | O=c1cc(-c2ccccc2)oc2cc(O)c(O)c(O)c12 [Compound 12, baicalein] | 108 ± 47 ng·h/mL | 11.1 ± 0.66 ng/mL | 7.57 ± 0.21 h | 0.42 ± 0.03 h | 19.5 ± 11.2 ng·h/mL | 3.46 ± 0.34 ng/mL | 5.99 ± 1.23 h | 1 ± 0.64 h | 
